# Measured values from patent US9315531B2, “Titanocene-gold derivatives comprising thiolato ligands” (Research Foundation of the City University of New York, priority 2014, dated 2016).
# Key:
# AKT = assay: Protein kinase expression in Caki-1 whole cell lysates, AKT; format: cell-based, human; settings: Caki-1, 5 μM, by 12 hours post-treatment
# Procedure: Whole cell lysates of Caki-1 cells treated with compounds 2 or 6 were also evaluated for their effects on the expression levels of selected protein kinases, namely p90-RSK, AKT and MAPKAPK3. […] Because all three enzymes have been implicated in promoting cell migration and therefore are strong targets for anti-metastasis drugs, these findings predict that compound 2 would be effective in controlling metastatic potential of renal tumors.
# Cell lysis and immunoblotting: Caki-1 cells were seeded into 10-cm dishes at a density of 2.2×10^6 and incubated for 24 hours. […]
# The protein concentration was determined with BCA protein dye reagent (Pierce, Fisher Scientific Pittsburgh, Pa.). Samples were denatured with 5×SDS sample buffer (0.25% bromophenol blue, 0.5 M dithiothreitol (DTT), 50% glycerol 50% (v/v), 10% sodium dodecyl sulfate (SDS) followed by heating at 95° C. for 5 minutes. Proteins were separated by SDS-PAGE, transferred to a PVDF membrane (Millipore Corp.), and probed with MAPKAPK-3 antibody (Cell Signaling Technology, Danvers, Mass., USA), as well as β-actin antibody (Cell Signaling Technology, Danvers, Mass., USA). Immunoreactive bands of primary antibodies were detected using HRP goat anti-rabbit and secondary antibodies were detected with peroxidase-conjugated secondary antibody and detected by chemiluminescence (Pierce Biotechnology, Rockford, Ill.).
# MAPKAPK3 = assay: Protein kinase expression in Caki-1 whole cell lysates (Western blot), MAPKAPK3; format: cell-based, human; settings: Caki-1, by 12 hours post-treatment
# Procedure: The Caki-1 cells were then lysed and a Western blot analysis was performed with anti-MAPKAPK-3 antibody. Blots were probed with anti-β-Actin antibody as a control for protein loading.
# Cell lysis and immunoblotting: Caki-1 cells were seeded into 10-cm dishes at a density of 2.2×10^6 and incubated for 24 hours. […] After microcentrifuging for 5 minutes at 4° C., pellets were treated with ice-cold lysis buffer with cell extraction buffer (BioSource, Camarillo, Calif.) containing 0.1% protease inhibitors and 1% phosphatase inhibitors cocktail (Fisher Scientific, Pittsburgh, Pa.) for 10 minutes, then sonicated for 10 seconds three times, and placed on ice. The lysed cells were centrifuged at 10,000×g at 4° C. for 10 minutes to remove the pellets representing the insoluble cell fraction.
# The protein concentration was determined with BCA protein dye reagent (Pierce, Fisher Scientific Pittsburgh, Pa.). […]
# [1] = Pharmacokinetics in blood/plasma (ICP-MS, gold content)
# Procedure: Blood was collected by retro-orbital bleeding into heparinized blood collection vials on ice at time intervals of 30 minutes, 2 hours, 6 hours, 24 hours, and 48 hours after the first dose.
# Gold and titanium content was determined using ICP-MS. […] The mixture was heated at 90° C. for 5 hours. After cooling, the samples were diluted with water, 40 ppb of Indium internal standard was added and analyzed in a Thermo Scientific XSERIES 2 ICP-MS with ESI PC3 Peltier cooled spray chamber with SC-FAST injection loop and SC-4 autosampler. All the elements were analyzed using He/H2 collision-reaction mode. Plasma from control mice was spiked with the test compounds to determine the extraction efficiency of gold and titanium.
# Pharmacokinetic estimates were obtained from the plasma concentration-time profiles by non-compartmental analysis.
substance,measurement,setting,value
[(η-C5H5)2TiMe(μ-mba)Au(PPh3)] [Compound 2],expression of AKT,AKT,dramatic decreases in expression
same,expression of MAPKAPK3,MAPKAPK3,dramatic decreases in expression
same,blood concentration at the time of the second dose,"[1]; 48 hours after the first dose, 3 mg/kg",40400 ± 6000 ng/mL
same,absorption into blood,[1]; blood levels up to twenty-four hours,slow absorption
